# Results as given in US20240299542A1, “NATURAL KILLER CELLS ENGINEERED TO REDUCE OR ELIMINATE CBL-B AND USES THEREOF” (City of Hope, priority 2021, published 2024).
# What was measured:
# [1] = system: IFN-γ; assay: IFN-γ in supernatants by ELISA; format: cell-based, human
# Method: FIGS. 4A-4D depict the results of a study showing that downregulation of Cbl-b increases IFN-γ secretion in IL-15-activated primary human NK cells. (FIG. 4A) RNAseq was conducted using primary human NK cells transduced with either Cbl-b siRNA or Scr siRNA without or with incubation in IL-15 (10 ng/ml) for 16 h (4 donors for each group). […] (FIG. 4B) qRT-PCR was performed to quantify the mRNA levels of IFN-γ (n=6 donors) after IL-15 (10 ng/ml) 6 h stimulation. (FIG. 4C) The percentage of intracellular IFN-γ+ cells in un-transduced NK cells or those transduced with Cbl-b siRNA or Scr siRNA, each activated with IL-15 (10 ng/ml) for 24 h (11.5% vs 4.338%; P=0.0008; n=5 donors). (FIG. 4D) Supernatants were collected after IL-15 (10 ng/ml) for 24 h and IFN-γ concentrations measured by ELISA (18115 pg/ml vs 882.5 pg/ml; P=0.0099; n=7 donors). Scr-scrambled; *P<0.05, **P<0.01, ***P<0.001 by Student's two-tailed paired t-test or One-way ANOVA; ns, not significant. Data presented as mean±SEM.
# ELISA. Primary NK cells were plated in an equivalent number of 100,000 cells/well in a 96-well plate in RPMI and supplemented with 10% FBS. Cells were treated with recombinant human IL-15 (10 ng/ml) for 24 h, and cell-free culture supernatant was collected and frozen at −80° C. for later use. IFN-γ concentration was measured by ELISA using anti-IFN-γ antibody from Thermo Fisher Scientific. Granzyme B concentration was measured by ELISA kit purchased from R&D.
# To further explore how Cbl-b regulates the functions of primary human NK cells, we performed RNA-seq analyses using enriched primary NK cells from healthy donors transduced with Cbl-b siRNA or Scr siRNA without or with IL-15 treatment for 16 h (n=4 in each group). […] The intracellular results were supported by assessment IFN-γ secretion into the supernatant, in that IL-15-activated primary human NK cells transduced with Cbl-b siRNA expressed 10-fold higher levels of IFN-γ compared to NK cells transduced with Scr siRNA (FIG. 4D).
# [2] = system: Cbl-b; assay: siRNA knockdown efficiency by immunoblot in primary human NK cells; format: cell-based; settings: 48 h transduction, vs Scr siRNA
# Method: FIG. 8A Primary human NK cells were transduced with Cbl-b siRNA or a scrambled siRNA (Scr siRNA) for 48 h, directly followed by immunoblot analysis to determine the efficiency of siRNA (n=3 donors). […] FIG. 8B qRT-PCR was performed to quantify the level of perform mRNA (n=7 donors) in Cbl-b siRNA- and Scr siRNA-transduced primary human cells incubated without or with IL-15 (10 ng/ml) for 16 h. FIG. 8C The perform protein level in Cbl-b siRNA- and Scr siRNA-transduced primary human NK cells incubated 24 without or with IL-15 (10 ng/ml) for 24 h was measured by immunoblot analysis. The data are representative of four experiments and are summarized in the right panel. Scr, scrambled; *P<0.05, **P<0.01; ns, not significant. Data are presented as mean±SEM.
# Transient transfection. Primary human NK cells were transfected with Accell siRNA by using the Accell delivery media from Dharmacon. Gene knockdown efficiency of siRNA was determined with immunoblotting analysis.
# Immunoblotting. […] Densitometric analysis was performed to quantify intensity of gel bands with Image J (National Institutes of Health).
# Both groups were next incubated without or with IL-15 and co-cultured with ^51Cr labeled MV4-11, Molm-13, or EOL-1 leukemia cell lines, followed by assessment of specific lysis measured after 4 h of co-culture.
# [3] = system: Mertk; assay: Mertk phosphorylation by immunoblot in siRNA-transduced NK cells; format: cell-based, human; settings: vs Scr siRNA
# Method: FIGS. 5A-5D depict the results of a study showing that Cbl-b interacts with and regulates phosphorylation of Mertk in primary human NK cells. (FIG. 5A) Representative intracellular flow cytometric analysis of the TAM family receptors expression in primary human NK cells. Summarized data are shown from 6 donors. IgG1 is the isotype for Tyro3 and Axl, while IgG2 for Mertk. (FIG. 5B) The level of Mertk phosphorylation and Cbl-b in Cbl-b siRNA- or Scr siRNA-transduced primary human NK was measured by immunoblot analysis. Data presented are representative of five independent experiments. […] Data presented are representative of 4 donors performed in a similar fashion and are summarized in the panel below the representative flow dot plots. […]
# FIGS. 10A-10B depict immunoblotting analysis of the phosphorylation level of Mertk (p-Mertk). (FIG. 10A) The level of Mertk phosphorylation and Cbl-b in Cbl-b siRNA- or Scr siRNA-transduced primary human NK cells was measured by immunoblot analysis. […] (FIG. 10B) The level of total Mertk expression in Cbl-b siRNA- or Scr siRNA-transduced primary human NK was measured by immunoblot analysis.
# Immunoblotting. […] Densitometric analysis was performed to quantify intensity of gel bands with Image J (National Institutes of Health). […]
substance,measurement,setting,value
"Cbl-b siRNA: Cbl-b-specific Accell siRNA (Dharmacon), SEQ ID NO:1, CCUUCAUGUUCAGAUGGUU (Accell modified siRNA, pattern not given here)",IFN-γ concentration in supernatants,"[1]; IL-15 (10 ng/ml) 24 h, n=7 donors",18115 pg/mL
same,secreted IFN-γ level relative to Scr siRNA,[1]; IL-15-activated,10 fold
same,expression of Cbl-b after siRNA transduction,[2],significant decrease
same,phosphorylation level of Mertk (p-Mertk),[3],significantly increased
